Molecules are shown by their SMILES. In brackets after ≈: the same amount, converted by molar mass. Where two headings read alike, the source gives them in different places.

Broadly, the IC50 is the concentration that inhibits the measured activity by half.

Assay [1] deals with Enterococcus faecium ATCC 700221. The assay can be described thus: Microbroth dilution MIC (CLSI), extended panel. The conditions noted are these: ATCC700221. On the technique in general: Dilution methods test growth across graded concentrations, often in twofold steps.
Assay [2] concerns Klebsiella pneumoniae ATCC 10031. In words: Microbroth dilution MIC (CLSI), extended panel. The conditions noted are these: ATCC10031.
The subject of assay [3] is Pseudomonas aeruginosa ATCC 27863. The assay can be described thus: Microbroth dilution MIC (CLSI), extended panel. Conditions: ATCC27863.
Assay [4] concerns Staphylococcus aureus, MRSA ATCC 43300. The assay can be described thus: Microbroth dilution MIC (CLSI), extended panel.
The test system of assay [5] is Clostridium difficile, toxigenic, ribotype 078 BAA-1875. The assay can be described thus: Microbroth dilution MIC (CLSI), extended panel. The conditions noted are these: Clostridioides difficile, BAA1875.
The subject of assay [6] is S. aureus ATCC 700699 VISA. The assay can be described thus: Modified microbroth dilution MIC at pH close to the skin. Type of assay: cell-based, Staphylococcus aureus. The procedure: (§1) To measure antibacterial activity of the compounds at pH that is similar to the human skin, compounds were assayed for their antimicrobial activity using a modified microbroth dilution assay. […] Vancomycin as included as a comparator antibiotic.

In assay [7] the test system is Streptococcus pneumoniae ATCC 49619. The assay can be described thus: Microbroth dilution MIC (CLSI), extended panel. Conditions: ATCC49619.
A further assay concerns S. aureus ATCC 29213. The assay can be described thus: Microbroth dilution MIC (CLSI). The conditions noted are these: Staphylococcus aureus, ATCC29213, read-out: MIC (μg/mL) S. aureus ATCC 29213.
For a further assay, the system named is E. faecalis ATCC 29212. The assay can be described thus: Microbroth dilution MIC (CLSI). Conditions: Enterococcus faecalis, ATCC29212, read-out: MIC (μg/mL) E. faecalis ATCC 29212.
The test system of assay [8] is S. aureus ATCC 43300 MRSA. In words: Modified microbroth dilution MIC at pH close to the skin. The conditions noted are these: Staphylococcus aureus. In kind it is cell-based. The procedure: as §1
Assay [9] has as its system Neisseria gonorrhoeae ATCC 700825. In words: Microbroth dilution MIC (CLSI), extended panel. The conditions noted are these: ATCC700825.
Another assay deals with E. faecium ATCC 35667. The assay can be described thus: Microbroth dilution MIC (CLSI). The conditions noted are these: Enterococcus faecium, ATCC35667, read-out: MIC (μg/mL) E. faecium ATCC 35667.
In the next assay the test system is E. coli ATCC 25922. The assay can be described thus: Microbroth dilution MIC (CLSI). The conditions noted are these: Escherichia coli, ATCC25922, read-out: MIC (μg/mL) E. coli ATCC 25922.
Assay [10] deals with Haemophilus influenzae ATCC 49247. In words: Microbroth dilution MIC (CLSI), extended panel. The conditions noted are these: ATCC49247.
Assay [11] has as its system Helicobacter pylori ATCC 43504. In words: Microbroth dilution MIC (CLSI), extended panel. Conditions: ATCC43504.
The target of assay [12] is S. aureus topoisomerase IV (Staphylococcus aureus, UniProt P0C1S7). The assay can be described thus: Topoisomerase IV inhibition assay (Inspiralis, streptavidin-coated plates). In kind it is biochemical. Conditions: read-out: IC50 DNA topoisomerase IV from S. aureus. The procedure:
Inhibitory activities for compounds of the present invention were determined on E. coli and S. aureus DNA gyrase and topoisomerase IV in an assay from Inspiralis on streptavidin-coated 96-well microtiter plates from Thermo scientific Pierce. First, the plates were rehydrated with buffer (20 mM Tris-HCl with pH 7.6, 0.01% w/v BSA, 0.05% v/v Tween 20, 137 mM NaCl) and the biotinylated oligonucleotide was then immobilized. After washing off the unbound oligonucleotide, the enzyme test was performed. […] Reaction solutions were incubated at 37° C. for 30 min. After that, the TF buffer (50 mM NaOAc with pH 5.0, 50 mM NaCl and 50 mM MgCl2) was added to terminate the enzymatic reaction. After additional incubation for 30 min at rt, during which biotin-oligonucleotide-plasmid triplex was formed, the unbound plasmid was washed off using TF buffer and SybrGOLD in T10 buffer (10 mM Tris HCl with pH 8.0 and 1 mM EDTA) was added. The fluorescence was measured with a microplate reader (BioTek Synergy H4, excitation: 485 nm, emission: 535 nm). […]. GraphPad Prism 6.0 software was used to calculate the IC50 values. The result is given as the average value of three independent measurements. […]. Chemoth. 66, 2061-2096 (2011))) for E. coli and S. aureus topoisomerase IV) was used.

The target in a further assay is E. coli DNA gyrase (Escherichia coli (strain K12), UniProt P0AES6). The assay can be described thus: DNA gyrase inhibition assay (Inspiralis, streptavidin-coated plates). In kind it is biochemical. As to the method: (§2) Inhibitory activities for compounds of the present invention were determined on E. coli and S. aureus DNA gyrase and topoisomerase IV in an assay from Inspiralis on streptavidin-coated 96-well microtiter plates from Thermo scientific Pierce. […] After washing off the unbound oligonucleotide, the enzyme test was performed. […] Reaction solutions were incubated at 37° C. for 30 min. After that, the TF buffer (50 mM NaOAc with pH 5.0, 50 mM NaCl and 50 mM MgCl2) was added to terminate the enzymatic reaction. After additional incubation for 30 min at rt, during which biotin-oligonucleotide-plasmid triplex was formed, the unbound plasmid was washed off using TF buffer and SybrGOLD in T10 buffer (10 mM Tris HCl with pH 8.0 and 1 mM EDTA) was added. […] GraphPad Prism 6.0 software was used to calculate the IC50 values. The result is given as the average value of three independent measurements. […] Chemoth.

Another assay has as its target S. aureus DNA gyrase (Staphylococcus aureus, UniProt P0A0K8). In words: biochemical. Conditions: read-out: IC50 DNA gyrase from S. aureus. As to the method:
as §2

The next assay deals with E. coli topoisomerase IV (Escherichia coli (strain K12), UniProt P20083). The assay can be described thus: Topoisomerase IV inhibition assay (Inspiralis, streptavidin-coated plates). Type of assay: biochemical. The procedure: Inhibitory activities for compounds of the present invention were determined on E. coli and S. aureus DNA gyrase and topoisomerase IV in an assay from Inspiralis on streptavidin-coated 96-well microtiter plates from Thermo scientific Pierce. […] After washing off the unbound oligonucleotide, the enzyme test was performed. […] Reaction solutions were incubated at 37° C. for 30 min. After that, the TF buffer (50 mM NaOAc with pH 5.0, 50 mM NaCl and 50 mM MgCl2) was added to terminate the enzymatic reaction. After additional incubation for 30 min at rt, during which biotin-oligonucleotide-plasmid triplex was formed, the unbound plasmid was washed off using TF buffer and SybrGOLD in T10 buffer (10 mM Tris HCl with pH 8.0 and 1 mM EDTA) was added. […] Initial screening was done at 100 or 10 nM concentration of inhibitors against E. coli DNA gyrase or 1 μM or 100 nM concentration against S. aureus DNA gyrase and E. coli and S. aureus topo IV. […] GraphPad Prism 6.0 software was used to calculate the IC50 values. The result is given as the average value of three independent measurements. […] Chemoth.
Chain of E. coli topoisomerase IV (P20083 whole entry, looked up): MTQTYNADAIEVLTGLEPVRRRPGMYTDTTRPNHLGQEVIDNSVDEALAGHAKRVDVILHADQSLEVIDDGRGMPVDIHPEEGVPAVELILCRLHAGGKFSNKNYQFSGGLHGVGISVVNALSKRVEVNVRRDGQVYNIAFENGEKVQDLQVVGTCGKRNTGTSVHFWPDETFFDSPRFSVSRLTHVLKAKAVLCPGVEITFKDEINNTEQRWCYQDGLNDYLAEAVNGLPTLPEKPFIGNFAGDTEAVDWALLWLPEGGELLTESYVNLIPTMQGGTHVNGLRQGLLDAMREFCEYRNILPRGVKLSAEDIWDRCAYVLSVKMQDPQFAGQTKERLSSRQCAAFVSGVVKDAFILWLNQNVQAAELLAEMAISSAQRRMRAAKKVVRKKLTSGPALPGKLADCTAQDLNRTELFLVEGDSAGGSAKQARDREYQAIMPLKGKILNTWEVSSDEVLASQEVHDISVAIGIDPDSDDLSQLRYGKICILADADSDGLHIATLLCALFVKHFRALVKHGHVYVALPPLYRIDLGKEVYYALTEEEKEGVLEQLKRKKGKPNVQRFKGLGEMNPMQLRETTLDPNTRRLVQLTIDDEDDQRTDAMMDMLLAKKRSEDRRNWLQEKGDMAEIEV
Chain of E. coli topoisomerase IV (P0AFI2 whole entry partner, looked up): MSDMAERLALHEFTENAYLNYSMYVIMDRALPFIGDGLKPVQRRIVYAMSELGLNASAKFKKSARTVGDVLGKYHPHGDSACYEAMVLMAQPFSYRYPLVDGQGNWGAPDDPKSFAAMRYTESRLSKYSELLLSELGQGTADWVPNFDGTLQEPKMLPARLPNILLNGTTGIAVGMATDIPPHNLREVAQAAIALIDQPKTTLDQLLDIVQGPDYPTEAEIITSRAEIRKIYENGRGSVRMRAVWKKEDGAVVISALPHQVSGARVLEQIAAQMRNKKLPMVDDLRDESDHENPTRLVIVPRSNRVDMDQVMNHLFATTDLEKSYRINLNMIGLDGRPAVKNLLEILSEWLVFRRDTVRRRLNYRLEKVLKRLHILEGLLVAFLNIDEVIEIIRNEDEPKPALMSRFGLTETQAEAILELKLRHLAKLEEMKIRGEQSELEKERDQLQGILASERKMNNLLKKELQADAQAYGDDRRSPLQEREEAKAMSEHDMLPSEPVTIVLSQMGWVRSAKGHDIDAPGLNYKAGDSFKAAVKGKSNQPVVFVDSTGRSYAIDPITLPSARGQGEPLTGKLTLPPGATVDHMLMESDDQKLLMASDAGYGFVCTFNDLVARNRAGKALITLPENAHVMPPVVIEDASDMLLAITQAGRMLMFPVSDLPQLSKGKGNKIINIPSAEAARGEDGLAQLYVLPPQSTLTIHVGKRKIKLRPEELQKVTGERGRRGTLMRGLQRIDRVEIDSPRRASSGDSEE

For the molecule `Cc1[nH]c(C(=O)Nc2nc3c(OCc4ccccc4)cc(C(=O)O)cc3s2)c(Cl)c1Cl` [Example 9, 4-(benzyloxy)-2-(3,4-dichloro-5-methyl-1H-pyrrole-2-carboxamido)benzo[d]thiazole-6-carboxylic acid], the MIC is 0.05 µg/mL (≈ 0.105 µM) in assay [1]; 4 µg/mL (≈ 8.4 µM) in assay [2]; 5 µg/mL (≈ 10.5 µM) in assay [3]; 0.4 µg/mL (≈ 0.84 µM) in assay [4]; not above 0.0312 µg/mL in assay [5]; 0.0005 µg/mL (≈ 0.00105 µM) in assay [6] (Staphylococcus aureus, S. aureus ATCC 700699 VISA, pH 5.5, read-out: MIC). In addition, the MIC in assay [6] (Staphylococcus aureus, S. aureus ATCC 700699 VISA, pH 7.3, read-out: MIC) was 0.02 µg/mL (≈ 0.042 µM); in [7] it was 0.25 µg/mL (≈ 0.525 µM); with S. aureus ATCC 29213, 0.25 µg/mL (≈ 0.525 µM); in the assay on E. faecalis ATCC 29212 it was not above 0.0312 µg/mL; in assay [8] (pH 5.5, read-out: MIC), 0.008 µg/mL (≈ 0.0168 µM); in [8] (pH 7.3, read-out: MIC), 0.2 µg/mL (≈ 0.42 µM). Also, the MIC in [9] is not above 0.0312 µg/mL; in the assay on E. faecium ATCC 35667, 0.09 µg/mL (≈ 0.189 µM); in the assay with E. coli ATCC 25922, 32 µg/mL (≈ 67.2 µM); in assay [10] it was 0.125 µg/mL (≈ 0.262 µM); in assay [11] it was 4 µg/mL (≈ 8.4 µM). Moreover, the concentration for half-maximal inhibition (IC50) in assay [12] is less than 400 nM.
With `Cc1[nH]c(C(=O)Nc2nc3c(OCCN4CCOCC4)cc(C(=O)O)cc3s2)c(Cl)c1Cl.Cl` [Example 10, 4-(2-((6-carboxy-2-(3,4-dichloro-5-methyl-1H-pyrrole-2-carboxamido)benzo[d]thiazol-4-yl)oxy)ethyl)morpholin-4-ium chloride], the MIC is more than 64 µg/mL in the assay with S. aureus ATCC 29213, 8 µg/mL in the assay with E. faecalis ATCC 29212, 40.2 µg/mL in the assay on E. faecium ATCC 35667 and more than 64 µg/mL in the assay on E. coli ATCC 25922. The IC50 against E. coli DNA gyrase was less than 5 nM; on S. aureus DNA gyrase, less than 20 nM; on E. coli topoisomerase IV it was less than 400 nM; in [12] it was less than 400 nM.
As to `Cc1[nH]c(C(=O)Nc2nc3c(OCc4ccc(C(=O)O)cc4)cc(C(=O)O)cc3s2)c(Cl)c1Cl` [Example 12, 4-((4-carboxybenzyl)oxy)-2-(3,4-dichloro-5-methyl-1H-pyrrole-2-carboxamido)benzo[d]thiazole-6-carboxylic acid], the MIC in the assay on S. aureus ATCC 29213, in the assay with E. faecalis ATCC 29212, with E. faecium ATCC 35667 and in the assay with E. coli ATCC 25922 was more than 64 µg/mL each time. Besides, the IC50 against E. coli DNA gyrase was less than 5 nM; on S. aureus DNA gyrase, less than 20 nM; against E. coli topoisomerase IV, less than 400 nM; in assay [12], less than 400 nM.
On to `Cc1[nH]c(C(=O)Nc2nc3c(OCc4ccsc4)cc(C(=O)O)cc3s2)c(Cl)c1Cl` [Example 31, 2-(3,4-dichloro-5-methyl-1H-pyrrole-2-carboxamido)-4-(thiophen-3-ylmethoxy)benzo[d]thiazole-6-carboxylic acid], for which the values for the MIC with S. aureus ATCC 29213, in the assay with E. faecalis ATCC 29212 and in the assay on E. coli ATCC 25922 were 0.25 µg/mL (≈ 0.518 µM), 0.0156 µg/mL (≈ 0.0323 µM) and 4 µg/mL (≈ 8.29 µM), respectively. Further, the IC50 is less than 5 nM against E. coli DNA gyrase, less than 20 nM at S. aureus DNA gyrase, less than 400 nM at E. coli topoisomerase IV and less than 400 nM in [12].
On to `Cc1[nH]c(C(=O)Nc2nc3c(OCc4cccs4)cc(C(=O)O)cc3s2)c(Cl)c1Cl` [Example 32, 2-(3,4-dichloro-5-methyl-1H-pyrrole-2-carboxamido)-4-(thiophen-2-ylmethoxy)benzo[d]thiazole-6-carboxylic acid], for which the MIC was 0.065 µg/mL (≈ 0.135 µM) in the assay on S. aureus ATCC 29213, 0.0163 µg/mL (≈ 0.0337 µM) in the assay on E. faecalis ATCC 29212 and 8 µg/mL (≈ 16.6 µM) with E. coli ATCC 25922. Also, the IC50 at E. coli DNA gyrase was less than 5 nM; on S. aureus DNA gyrase, less than 20 nM; against E. coli topoisomerase IV, less than 400 nM; in assay [12] it was less than 400 nM.
Regarding `Cc1[nH]c(C(=O)Nc2nc3c(N4CCCC4)cc(C(=O)O)cc3s2)c(Cl)c1Cl` [Example 37, 2-(3,4-dichloro-5-methyl-1H-pyrrole-2-carboxamido)-4-(pyrrolidin-1-yl)benzo[d]thiazole-6-carboxylic acid], the values for the MIC in the assay with S. aureus ATCC 29213, in the assay with E. faecalis ATCC 29212 and in the assay on E. coli ATCC 25922 were 0.25 µg/mL (≈ 0.569 µM), 0.125 µg/mL (≈ 0.285 µM) and 16 µg/mL (≈ 36.4 µM), respectively. For the same molecule, the IC50 was less than 5 nM on E. coli DNA gyrase, less than 20 nM at S. aureus DNA gyrase, less than 400 nM against E. coli topoisomerase IV and less than 400 nM in assay [12].
`Cc1[nH]c(C(=O)Nc2nc3c(-c4ccccc4)cc(C(=O)O)cc3s2)c(Cl)c1Cl` [Example 44, 2-(3,4-dichloro-5-methyl-1H-pyrrole-2-carboxamido)-4-phenylbenzo[d]thiazole-6-carboxylic acid]: the MIC was 0.0312 µg/mL (≈ 0.07 µM) with S. aureus ATCC 29213, 0.023 µg/mL (≈ 0.0515 µM) in the assay on E. faecalis ATCC 29212 and more than 64 µg/mL in the assay with E. coli ATCC 25922. Also, the IC50 is less than 5 nM against E. coli DNA gyrase, less than 20 nM on S. aureus DNA gyrase, less than 400 nM at E. coli topoisomerase IV and less than 400 nM in assay [12].
With `CN[C@H](CC(C)C)C(=O)N[C@H]1C(=O)N[C@@H](CC(N)=O)C(=O)N[C@H]2C(=O)N[C@H]3C(=O)N[C@H](C(=O)N[C@H](C(=O)O)c4cc(O)cc(O)c4-c4cc3ccc4O)[C@H](O)c3ccc(c(Cl)c3)Oc3cc2cc(c3O[C@@H]2O[C@H](CO)[C@@H](O)[C@H](O)[C@H]2O[C@H]2C[C@](C)(N)[C@H](O)[C@H](C)O2)Oc2ccc(cc2Cl)[C@H]1O` [Vancomycin, reference compound], the “MIC” value in assay [6] (S. aureus ATCC 700699 VISA, pH 5.5) came to 8 µg/mL (≈ 5.52 µM); in [6] (Staphylococcus aureus), 8 µg/mL (≈ 5.52 µM); in [8] (pH 5.5), 2 µg/mL (≈ 1.38 µM); in [8] (pH 7.3), 1 µg/mL (≈ 0.69 µM).
